Measured values: patent US11603387B2, “SOCS mimetics for the treatment of diseases” (UNIVERSITY OF FLORIDA RESEARCH FOUNDATION, INC., priority 2014, dated 2023)

How the values were obtained:
IFNγ = IFNγ expression by qPCR and ELISA under Th17 inducing conditions; assay type: cell-based, mouse; details: SOCS1-KIR peptide (20 μM)
Method: FIGS. 5A-5D. […] (FIGS. 5A and 5B) SOCS1^+/+ or SOCS1^+/− CD4^+CD25^− T cells were stimulated with αCD3 antibodies alone or with αCD3+SOCS1-KIR peptide (20 μM) for 72 h. (FIG. 5A) CD25 expressing cells were assessed by flow cytometry. Results are representative of 4 independent experiments. (FIG. 5B) Proliferation was assessed by CFSE labeling and flow cytometry, cell counts, and ^3[H] thymidine incorporation. n=4. (FIGS. 5C and 5D) SOCS1^+/+ or SOCS1^+/− CD4^+CD25^− T cells were placed under Th17 inducing conditions in the absence or presence of SOCS1-KIR peptide (20 μM) (FIG. 5C) IFNγ expression, relative to β-actin., was assessed by qPCR (left) and ELISA (right) (n=4). (FIG. 5D) pSTAT1 and STAT1 protein expressions were assessed by western blotting. Results are representative of 4 independent experiments. Statistical comparisons were performed using Mann-Whitney U test. (*P<0.05). iTh17=Th17 inducing conditions, WT=SOCS1^+/+, and HT=SOCS1^+/−.
CD4^+CD25^− T lymphocytes (1×10^5/well) were cultured in triplicate at 37° C. (5% CO2) in RPMI 1640 (Cellgro 10-040-CV) containing 10% FBS (INVITROGEN™ GIBCO®) 1% antibiotic/antimycotic (Herndon, Va.), and 50 μM β-ME (MP Biomedicals, Solon, Ohio). […] Cells were incubated for 72 hours and assessed for Treg differentiation by ICS for Foxp3. […] Cells were collected after 5 days and assessed for activation and Th17 differentiation. […]

SOCS1−/− mice = experiment: Lethal perinatal auto-inflammatory disease in SOCS1−/− mice; assay type: in vivo, mouse; details: peptide combined with CD4 T cells
Description: FIGS. 15A-15F. SOCS1-KIR inhibition of lethal inflammatory pathology in SOCS1−/− mice is correlated to enhanced regulatory T cell homeostasis. (FIG. 15A) Kaplan Meier curve showing survival of SOCS1^−/− (black square; n=7) or CD4^+/SOCS1-KIR treatment (purple triangles, n=12). Numbers of mice in each group are indicated in parentheses. Mice were euthanized when moribund with survival comparisons by Mantel-Cox. Statistical significance denoted by asterisks. (FIG. 15B) Photographs of H & E stains depicting heart and liver tissues of 2 week old SOCS1^−/−, SOCS1^−/− mice receiving dual treatments, or littermate control mice. Photographs shown of H & E stained liver and heart of untreated SOCS1^−/− (N=8) and WT (N=7) mice are representative of 100% of samples analyzed. Photographs shown of H & E stained liver and heart of SOCS1^−/− mice receiving combined treatments are representative of 2 out of 5 mice in regard to heart samples and 1 out of 5 mice in regards to liver tissue. (FIG. 15C) Graph showing average daily weights of SOCS1^−/− mice untreated (n=16), CD4^+/SOCS1-KIR treatment (n=12), or WT littermate controls (n=9) over a two week period. (FIG. 15D) Photographs of 2 week old SOCS1^−/− mice, SOCS1^−/− mice receiving dual treatment, and WT littermate controls. (FIG. 15E) Graphs showing IFNg levels within the sera of 2 week old WT (n=7) or SOCS1^−/− mice with (n=8) and without (n=10) CD4^+/SOCS1-KIR treatment, measured by ELISA. (FIG. 15F) Graphs showing absolute numbers of CD4^+Foxp3^+ lymphocytes present in two week old SOCS1^−/− and WT littermate control mice with or without CD4^+/SOCS1-KIR treatment and WT 6-8 week old adult mice. Each dot is representative of an individual mouse with averages denoted by lines. Statistics were performed using unpaired, two-tailed t test comparing treated SOCS1^−/− to untreated SOCS1^−/− 2 wk. Statistical significance is denoted by asterisks. *, p≤0.05; **, p 0≤0.005; ***, p≤0.0005.

Sequence: DTHFRTFRSHSDYRRI (SOCS1-KIR peptide) [SOCS1 mimetic peptide corresponding to the KIR region of SOCS1]
- Reduction in IFNγ protein production (IFNγ; ELISA): 2 fold
- Reduction in IFNγ mRNA expression (IFNγ; qPCR relative to β-actin): 2 fold
- Peripheral Foxp3+CD4+ Tregs (SOCS1−/− mice; 2 week old SOCS1−/− mice): enhanced peripheral homeostasis of Foxp3+CD4+ Tregs
- Leukocytic infiltration into heart and liver (SOCS1−/− mice; SOCS1−/− mice): prevent/delay leukocytic infiltration into heart and liver
- Quality of life (size and overall health) (SOCS1−/− mice; SOCS1−/− mice): improve the quality of life (size and overall health improvement)
- Survival (SOCS1−/− mice; SOCS1−/− mice): could extend the life
